Laboratory results taken from ChEMBL document CHEMBL5149998, “Synthetic access to thiolane-based therapeutics and biological activity studies” (Eur J Med Chem, 2021).
Values after ≈ are worked out from the molar mass of the structure shown.

How the values were obtained:
[1] = system: HT-29; assay: Anticancer activity against human HT-29 cells assessed as cell growth inhibition; assay type: functional, cell-based
[2] = system: Jurkat; assay: Anticancer activity against human Jurkat T cells assessed as cell growth inhibition; assay type: functional, cell-based
[3] = system: B16; assay: Anticancer activity against mouse B16 cells assessed as cell growth inhibition; assay type: functional, cell-based
[4] = system: U-937; assay: Anticancer activity against human U-937 cells assessed as cell growth inhibition; assay type: functional, cell-based
[5] = system: B16; assay: Antitumor activity against mouse B16 cells implanted in mouse assessed as inhibition of lung tumor formation at 5 mg/kg, po measured after 10 days relative to control; assay type: functional; set-up: scale not given: the % may be the effect or the level left; details: time 10 day
[6] = system: Staphylococcus aureus; assay: Antibacterial activity against methicillin resistant Staphylococcus aureus incubated for 24 hrs by broth microdilution method; assay type: functional
[7] = system: Enterococcus; assay: Antibacterial activity against vancomycin resistant Enterococcus incubated for 24 hrs by broth microdilution method; assay type: functional
[8] = system: Blastomyces dermatitidis; assay: Antifungal activity against Blastomyces dermatitidis; assay type: functional
[9] = system: Histoplasma capsulatum; assay: Antifungal activity against Histoplasma capsulatum; assay type: functional
[10] = biological target: Prostaglandin G/H synthase 1 (Homo sapiens, UniProt P23219); assay: Inhibition of COX-1 (unknown origin) using arachidonic acid as substrate assessed as PGH2 level preincubated for 5 mins followed by substrate addition and measured after 1 min by UHPLC-MS/MS analysis
[11] = Inhibition of Saccharomyces alpha-glucosidase using p-nitrophenyl-alpha-D-glucopyranoside as substrate assessed as substrate hydrolysis incubated for 15 mins by spectrophotometer analysis; set-up: species or system Saccharomyces sp.

Prostaglandin G/H synthase 1, sequence (P23219 whole entry): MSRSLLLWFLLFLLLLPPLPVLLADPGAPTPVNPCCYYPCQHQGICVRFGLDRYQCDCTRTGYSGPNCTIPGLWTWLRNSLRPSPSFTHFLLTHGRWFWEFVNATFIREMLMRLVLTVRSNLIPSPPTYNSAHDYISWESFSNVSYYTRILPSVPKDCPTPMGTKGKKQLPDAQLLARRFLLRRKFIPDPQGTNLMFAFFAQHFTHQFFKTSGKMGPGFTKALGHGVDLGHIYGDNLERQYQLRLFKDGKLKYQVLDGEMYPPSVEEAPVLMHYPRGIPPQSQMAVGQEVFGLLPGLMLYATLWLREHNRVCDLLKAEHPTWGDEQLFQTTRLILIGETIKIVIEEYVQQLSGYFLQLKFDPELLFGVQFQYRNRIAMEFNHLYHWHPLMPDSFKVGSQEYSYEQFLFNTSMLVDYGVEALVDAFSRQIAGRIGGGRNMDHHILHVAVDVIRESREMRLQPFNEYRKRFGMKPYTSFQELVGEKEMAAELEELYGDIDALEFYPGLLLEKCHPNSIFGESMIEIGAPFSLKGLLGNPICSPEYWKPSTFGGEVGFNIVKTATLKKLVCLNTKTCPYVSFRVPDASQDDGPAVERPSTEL

SMILES: C1=[N+](CCCCc2ccccc2)CCCC12CCC2
- EC50 [1]: 43000 nM
- EC50 [2]: 9600 nM

SMILES: C[C@@H]1CC[C@@H](c2ccoc2)N2C[C@@]3(CC[C@@H]12)CS[C@]1(CC[C@H]2[C@H](C)CC[C@@H](c4ccoc4)N2[C@@H]1O)C3 [6-HYDROXYTHIONUPHLUTINE B]
- IC50 [3]: 360 nM

SMILES: CS[C@@]1(C)CC[C@@H]2[C@@H](C)CC[C@H](c3ccccc3)N2[C@H]1O
- IC50 [4]: 5000 nM

SMILES: CSC1(C)CCC2C(C)CCC(c3ccccc3)N2C1O (racemic)
- IC50 [4]: 3000 nM

SMILES: C1=[N+](CCCCc2ccccc2)CCCC12CSC1(C=[N+](CCCCc3ccccc3)CCC1)C2 (centres undefined)
- EC50 [1]: 2100 nM
- EC50 [2]: 1200 nM

SMILES: C[C@H]1CC[C@H](c2ccoc2)N2C[C@]3(CC[C@H]12)CS[C@]1(CC[C@@H]2[C@@H](C)CC[C@H](c4ccoc4)N2[C@H]1O)C3
- IC50 [4]: 5000 nM

SMILES: CS[C@@]1(C)CC[C@@H]2[C@@H](C)CC[C@H](c3ccc(F)cc3)N2[C@H]1O
- IC50 [4]: 5000 nM

SMILES: CS[C@]1(C)CC[C@@H]2[C@@H](C)CC[C@H](c3ccc(F)cc3)N2[C@H]1O
- IC50 [4]: 1250 nM

SMILES: C[C@@H]1CC[C@@H](c2ccoc2)N2[C@H]1CC[C@@]1(CS[C@]3(CC[C@H]4[C@H](C)CC[C@@H](c5ccoc5)N4[C@@H]3O)C1)[C@H]2O
- IC50 [4]: 2500 nM

SMILES: C[C@@H]1CC[C@@H](c2ccoc2)N2C[C@@]3(CC[C@@H]12)CS[C@@]1(CC[C@H]2[C@H](C)CC[C@@H](c4ccoc4)N2[C@@H]1O)C3
- IC50 [3]: 29 nM
- Activity [5]: >90%
- IC50 [4]: 5000 nM

SMILES: CSC1(SC)CC[C@H]2[C@H](C)CC[C@@H](c3ccccc3)N2[C@@H]1O
- IC50 [4]: 10000 nM

SMILES: NCC[C@H](O)C(=O)N[C@@H]1C[C@H](N)[C@@H](O[C@H]2O[C@H](CN)CC[C@H]2N)[C@H](O)[C@H]1O[C@H]1O[C@H](CO)[C@@H](O)[C@H](N)[C@H]1O [ARBEKACIN]
- MIC [6]: 0.5 µg/mL (≈ 0.905 µM)

SMILES: C1=[N+](CCCCc2ccccc2)CCCC12CCCO2 (centres undefined)
- EC50 [1]: 87000 nM
- EC50 [2]: 38000 nM

SMILES: C[C@@H]1CC[C@@H](c2ccoc2)N2[C@H]1CC[C@@]1(CS[C@@]3(CC[C@H]4[C@H](C)CC[C@@H](c5ccoc5)N4[C@@H]3O)C1)[C@H]2O
- MIC [7]: 2 µg/mL (≈ 3.8 µM)
- MIC [6]: 1 µg/mL (≈ 1.9 µM)
- Activity [8]: 100 µg/mL
- Activity [9]: 100 µg/mL
- IC50 [3]: 87 nM
- IC50 [4]: 5000 nM

SMILES: CCn1cc(C(=O)O)c(=O)c2cc(F)c(N3CCNCC3)cc21 [NORFLOXACIN]
- MIC [7]: 4 µg/mL (≈ 12.5 µM)
- MIC [6]: 0.5 µg/mL (≈ 1.57 µM)

SMILES: CC1CCC(c2ccoc2)N2C1CCC1(CSC3(CCC4C(C)CCC(c5ccoc5)N4C3O)C1)C2O (centres undefined)
- EC50 [1]: 547 nM
- EC50 [2]: 263 nM

SMILES: C#CC[C@]1(SC)CC[C@@H]2[C@@H](C)CC[C@H](c3ccccc3)N2[C@H]1O
- IC50 [4]: 2500 nM

SMILES: C[C@H]1CC[C@H](c2ccccc2)N2[C@@H]1CC[C@](C)(Sc1ccccc1)[C@@H]2O
- IC50 [4]: 5000 nM

SMILES: CSC1(SC)CCC2C(C)CCC(c3ccccc3)N2C1O (racemic)
- IC50 [4]: 5000 nM

SMILES: C[C@H]1CC[C@H](c2ccoc2)N2[C@@H]1CC[C@]1(CS[C@]3(CC[C@@H]4[C@@H](C)CC[C@H](c5ccoc5)N4[C@H]3O)C1)[C@@H]2O
- IC50 [4]: 5000 nM

SMILES: C/C=C/[S+]([O-])SC1SC(O)C(C)C1C (centres undefined)
- IC50 [10]: 52 nM
- IC50 [11]: 710 nM

SMILES: C[C@@H]1CC[C@@H](c2ccoc2)N2[C@H]1CC[C@]1(CS[C@]3(CC[C@H]4[C@H](C)CC[C@@H](c5ccoc5)N4[C@@H]3O)C1)[C@H]2O
- IC50 [4]: 1250 nM

SMILES: C[C@H]1CC[C@H](c2ccoc2)N2[C@@H]1CC[C@@]1(CS[C@]3(CC[C@@H]4[C@@H](C)CC[C@H](c5ccoc5)N4[C@H]3O)C1)[C@@H]2O
- IC50 [4]: 2500 nM

SMILES: FC(F)(F)c1ccc(C[N+]2=CC3(CCC2)CSC2(C=[N+](Cc4ccc(C(F)(F)F)cc4)CCC2)C3)cc1 (centres undefined)
- EC50 [1]: 2400 nM
- EC50 [2]: 1800 nM

SMILES: CC(=O)NC[C@H]1CN(c2ccc(N3CCOCC3)c(F)c2)C(=O)O1 [LINEZOLID]
- MIC [6]: 1 µg/mL (≈ 2.96 µM)

SMILES: C=C1C=[N+](CCCCc2ccccc2)CCC1
- EC50 [1]: 45000 nM
- EC50 [2]: 17000 nM

SMILES: COc1ccc([C@H]2CC[C@H](C)[C@H]3CC[C@](C)(SC)[C@H](O)N23)cc1
- IC50 [4]: 5000 nM

SMILES: C1=[N+](Cc2ccccc2)CCCC12CSC1(C=[N+](Cc3ccccc3)CCC1)C2 (centres undefined)
- EC50 [1]: 2300 nM
- EC50 [2]: 1600 nM

SMILES: C#CC[C@@]1(SC)CC[C@@H]2[C@@H](C)CC[C@H](c3ccccc3)N2[C@H]1O
- IC50 [4]: 2500 nM

SMILES: C[C@@H]1CC[C@@H](c2ccoc2)N2[C@H]1CC[C@]1(CS[C@@]3(CC[C@H]4[C@H](C)CC[C@@H](c5ccoc5)N4[C@@H]3O)C1)[C@H]2O
- IC50 [4]: 2500 nM

SMILES: C=CC[C@]1(SC)CC[C@@H]2[C@@H](C)CC[C@H](c3ccc(F)cc3)N2[C@H]1O
- IC50 [4]: 5000 nM

SMILES: COc1ccc([C@H]2CC[C@H](C)[C@H]3CC[C@@](C)(SC)[C@H](O)N23)cc1
- IC50 [4]: 1250 nM

SMILES: Cc1onc(-c2ccccc2)c1C(=O)N[C@@H]1C(=O)N2[C@@H]1SC(C)(C)[C@@H]2C(=O)O [OXACILLIN]
- MIC [6]: 0.06 µg/mL (≈ 0.149 µM)

SMILES: COc1ccc([C@H]2CC[C@H](C)[C@H]3CCC(SC)(SC)[C@H](O)N23)cc1
- IC50 [4]: 5000 nM

SMILES: C[C@@H]1CC[C@@H](c2ccccc2)N2[C@@H](O)[C@@](C)(Sc3ccccc3)CC[C@@H]12
- IC50 [4]: 2500 nM

SMILES: C#CCC1(SC)CCC2C(C)CCC(c3ccccc3)N2C1O (racemic)
- IC50 [4]: 5000 nM

SMILES: CSC1(SC)CC[C@@H]2[C@@H](C)CC[C@H](c3ccccc3)N2[C@H]1O
- IC50 [4]: 1250 nM

SMILES: CN[C@H](CC(C)C)C(=O)N[C@H]1C(=O)N[C@@H](CC(N)=O)C(=O)N[C@H]2C(=O)N[C@H]3C(=O)N[C@H](C(=O)N[C@H](C(=O)O)c4cc(O)cc(O)c4-c4cc3ccc4O)[C@H](O)c3ccc(c(Cl)c3)Oc3cc2cc(c3O[C@@H]2O[C@H](CO)[C@@H](O)[C@H](O)[C@H]2O[C@H]2C[C@](C)(N)[C@H](O)[C@H](C)O2)Oc2ccc(cc2Cl)[C@H]1O [VANCOMYCIN]
- MIC [7]: 0.5 µg/mL (≈ 0.345 µM)

SMILES: COc1ccc(C[N+]2=CC3(CCC2)CSC2(C=[N+](Cc4ccc(OC)cc4)CCC2)C3)cc1 (centres undefined)
- EC50 [1]: 2800 nM
- EC50 [2]: 1800 nM

SMILES: CC1CCC(c2ccccc2)N2C1CCC(C)(Sc1ccccc1)C2O (racemic)
- IC50 [4]: 5000 nM

SMILES: C1=[N+](CCCCc2ccccc2)CCCC12CCCS2 (centres undefined)
- EC50 [1]: 12000 nM
- EC50 [2]: 6300 nM

SMILES: C[C@H]1CC[C@H](c2ccoc2)N2[C@@H]1CC[C@]1(CS[C@@]3(CC[C@@H]4[C@@H](C)CC[C@H](c5ccoc5)N4[C@H]3O)C1)[C@@H]2O
- IC50 [4]: 5000 nM

SMILES: C[C@H]1CC[C@H](c2ccccc2)N2[C@@H]1CC[C@@](C)(Sc1ccccc1)[C@@H]2O
- IC50 [4]: 2500 nM

SMILES: C[C@H]1CC[C@H](c2ccoc2)N2[C@@H]1CC[C@@]1(CS[C@@]3(CC[C@@H]4[C@@H](C)CC[C@H](c5ccoc5)N4[C@H]3O)C1)[C@@H]2O
- IC50 [4]: 2500 nM

SMILES: CS[C@]1(C)CC[C@@H]2[C@@H](C)CC[C@H](c3ccccc3)N2[C@H]1O
- IC50 [4]: 625 nM

SMILES: CSC1(SC)CC[C@@H]2[C@@H](C)CC[C@H](c3ccc(F)cc3)N2[C@H]1O
- IC50 [4]: 5000 nM
